Entries after “also recorded” stand apart in the source; their conditions may differ. Like-named read-outs stand apart in the source and are kept apart here.
How the values were obtained:
[1] = target: T1, PDXK (Homo sapiens, UniProt O00764); test: Intracellular PLP levels (PDXK inhibition) in human Molm13 leukemic cells; type: cell-based; conditions: human Molm13 leukemic cells (FIG. 17B, 18B)
T1 construct: endogenous in cells; host or cells: human Molm13 (MOLM13) AML cells
T1 sequence (O00764 1-312): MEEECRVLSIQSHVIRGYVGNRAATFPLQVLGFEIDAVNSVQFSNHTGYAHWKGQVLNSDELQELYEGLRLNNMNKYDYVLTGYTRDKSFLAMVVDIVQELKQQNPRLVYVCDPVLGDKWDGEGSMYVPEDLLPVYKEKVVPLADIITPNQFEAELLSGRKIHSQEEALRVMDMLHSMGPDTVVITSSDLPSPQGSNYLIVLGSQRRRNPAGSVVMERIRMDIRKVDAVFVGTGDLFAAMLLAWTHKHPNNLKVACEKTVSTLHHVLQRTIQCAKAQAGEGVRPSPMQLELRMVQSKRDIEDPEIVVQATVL
Procedure: (§1) LC-MS grade solvents were purchased from Thermo Fisher Scientific (Waltham, Mass.), metabolite standards were purchased from Sigma (St. Louis, Mo.) unless stated otherwise. Nras(G12D)/MLL-AF9 cells infected with viruses encoding Pdxk shRNAs were harvested after 5 days of doxycycline induction. Human MOLM13 cells infected with viruses encoding Pdxk sgRNAs were harvested at day 11 post infection. Nras(G12D)/MLL-AF9 cells or MOLM13 cells were treated with indicated concentrations of isoniazid and harvested after 5 days treatment.
In each case, 2 million cells were collected by centrifugation at 440×g, media was aspirated and 1004 of ice-cold 10% trichloroacetic acid with or without 100 ng/mL d3-pyridoxal (d3-PL), d3-pyridoxine (d3-PN), d3-pyridoxamine (d3-PM), d3-pyridoxal phosphate (d3-PLP) (IsoSciences LLC, Ambler Pa.) was added for metabolite extraction. For experiments involving isoniazid treatment, cells were washed once with PBS to remove residual drug and minimize post-lysis reactions between isoniazid and PLP, which was confirmed by monitoring the d3-PLP internal standard. After overnight incubation at −80° C., samples were vortexed and transferred to 1.7 mL conical eppendorf tubes and centrifuged at 21,000×g for 20 min at 4° C. The supernatant was transferred to autosampler vials for LC-MS analysis. Vitamin B species separation was performed using an Agilent 1290 infinity pump and XSelect HSS T3 column (150×2.1 mm, 3.5 μm; Waters Corporation, Milford Mass.). Mobile phase A was 0.1% heptaflurobutyric acid (HFBA, Thermo Fisher, Waltham Mass.) and 0.1% formic acid (FA, Thermo Fisher, Waltham Mass.) in water, mobile phase B was 0.1% HFBA and 0.1% FA in acetonitrile. The injection volume was 10 μL and LC gradient conditions were: 0 min: 0% B; 1 min: 0% B; 7 min: 25% B; 8 min: 25% B; 9 min: 100% B; 10.5 min: 100% B, with 4.5 min of re-equilibration time. MS detection was performed using an Agilent 6230 TOF accurate mass spectrometer with Dual JetStream source operating in positive ionization mode. MS parameters were: gas temp 250° C.; gas flow: 13 L/min; nebulizer pressure: 45 psig; sheath gas temp: 225° C.; sheath gas flow: 12 L/min; VCap: 3,500 V; Fragmentor: 175 V; Skimmer: 65 V; Octopole RF: 750 V. Active mass axis correction was performed using a second nebulizer and pyridine (80.049480) and roxithromycin (837.53185). Data was acquired from m/z 50-1700 at 1.5 spectra/sec. Accurate mass (±20 ppm) and retention time was confirmed relative to the pure standards. Data analysis was performed using MassHunter software (Agilent, Santa Clara Calif.).

[2] = system: human leukemic cells; test: Proliferation / growth of human leukemic cell lines cultured with compound; type: cell-based; conditions: for growth of human AML cells in vitro: indicated leukemic cell lines (FIG. 17C, 18C)
Procedure: The average and STDEV of relative cell proliferation are shown.
(§2) Mouse AML cell lines, human AML cell lines, iMEF cell line and 3T3 cell line were infected with virus encoding Cas9 (Addgene 52962, Watertown Mass.) followed with blastcitidin selection to generate Cas9 cell lines. All viral sgRNA infection experiments were performed on Cas9 cell lines. All viral shRNA infection experiments were performed on cell lines carrying rtTA3. Mouse leukemic cell lines including Nras(G12D)/MLL-AF9, MLL-AF9, Nras(G12D)/IDH, Nras(G12D)/NPM1, and IDH/Flt3 were cultured in RPMI medium supplemented with 10% Fetal Bovine Serum (FBS), L-glutamine, penicillin streptomycin, recombinant mouse SCF, IL-3 and IL-6. Human leukemic cell lines MOLM13, M12, Semk2, THP1, and K562 were cultured in RPMI medium supplemented with 10% FBS, L-glutamine, penicillin, and streptomycin. Vitamin B6 depleted medium (VB6−) was prepared by customized pyridoxin (−) RPMI (Gibco, Gaithersburg, Md.) with 10% dialyzed FBS, L-glutamine, penicillin, and streptomycin. Pyridoxin hydrochloride (Sigma, St Louis Mo.) was added back to VB6(−) medium to make the VB6 (+) medium used for leukemia and MEF culture. Control or gene targeting sgRNAs or shRNAs were delivered by lentivirus. Spin infections were performed at 37° C. and 1500 RPM for 60 minutes. After spin infection, viral supernatants were substituted with leukemic cell culture medium. For compound treatment, isoniazid was added in culture medium at indicated concentrations.
(§3) For competition and cell proliferation experiments, mouse or human leukemic cells were infected with viruses encoding sgRNAs or shRNAs. Spin infections were performed at 37 degree and 1500 RPM for 60 minutes. After spin infection, viral supernatants were substituted with leukemic cell culture medium. GFP+ percentage or cell number was monitored during culture using guava flow cytometer. The absolute cell number was measured by using flow cytometry absolute count standard (Bangs Laboratories Inc., Fishers Ind.). The experimental results were analyzed by guavasoft software.

[3] = system: bone marrow HSPCs; test: Proliferation of bone marrow HSPCs cultured with compound; type: cell-based, mouse
Text: The average and STDEV of relative cell proliferation of 3 replicates are shown.
Bone marrow hematopoietic stem and progenitor cell isolation, culture, and compound treatment. For isolation of bone marrow cells, the bone marrow from the femur and tibia was flushed into ice cold PBS buffer. After red blood cell lysis with ammonium chloride (STEMCELL 07850, Vancouver Canada), the bone marrow cells were resuspended with PBS and filtered into a round bottom tube with cell strainer cap. The hematopoietic cells lineages were stained with biotin mouse lineage panel (BD Biosciences 559971, San Jose Calif.), then isolated by magnetic beads separation. For c-Kit positive cells, mouse hematopoietic cells were isolated from bone marrow using MACS CD117 isolation system. Purified bone marrow cells were cultured in RPMI medium supplemented with recombinant mouse SCF, IL-3, and IL-6. Control or Pdxk targeting sgRNAs or shRNAs were delivered by lentivirus. Spin infections were performed at 37 degree and 1500 RPM for 60 minutes. After spin infection, viral supernatants were substituted with leukemic cell culture medium. For compound treatment, isoniazid was added in culture at indicated concentrations.

[4] = system: Nras(G12D)/MLL-AF9 leukemia; test: AML mouse model: sub-lethally irradiated mice transplanted with Nras(G12D)/MLL-AF9 cells, compound treatment; type: in vivo; conditions: for animal survival / leukemia disease progression (luciferase signal): daily dosing vs PBS control, isoniazid 90 mg/kg intraperitoneally
Text: PDXK shRNAs were cloned into a doxycycline inducible H2 vector (D9891-25G, Sigma-Aldrich, St. Louis, Mo.). Leukemic cells were infected with viruses encoding shRNAs targeting Renilla luciferase or PDXK, followed by either in vitro culture or transplantation. For in vitro culture experiments, doxycycline was supplemented into culture medium, and the percentage of GFP^+ cells was monitored. For in vivo AML mouse model experiments, the dietary feed of the mice was supplemented with doxycycline, and luciferase expression levels were monitored. For in vivo drug efficacy experiments, leukemic cells were transplanted into sub-lethally irradiated mice. Control PBS or isoniazid (90 mg/kg) was injected 6 hours after transplant and then daily into the transplant containing mice, and luciferase expression levels were monitored. High-performance liquid chromatography-mass spectrometry (HPLC-MS) was performed as previously described in A. M. Intlekofer et al., Nat Chem Biol 13, 494-500 (2017).
For isoniazid injection experiment, Nras(G12D)/MLL-AF9 leukemic cells were collected and resuspended in PBS at a concentration of 5 million/ml. 5-6 weeks old B6-LY5 mice (Charles River Labs, Wilmington Mass.) were sublethally irradiated (450 cGy) and transplanted with 1 million leukemic cells through tail vein injection. PBS or 90 mg/kg isoniazid were intraperitoneally injected daily.
The leukemia disease progress was monitored by in vivo bioluminescent imaging using IVIS Lumina image system (Xenogen) every 3 days. Before imaging, all mice were anesthetized with 2% isoflurane, and anesthesia was also maintained during the image acquisition inside Xenogen dark chamber. 300 mg/kg D-Luciferin (Gold Biotechnology Olivette, Mo.) in PBS at 15 mg/ml was intraperitoneally injected ˜12 minutes before image capturing. The bioluminescence was acquired and quantitatively analyzed by the Living Image software.

[5] = system: Nras(G12D)/MLL-AF9 leukemic cells; test: Metabolite rescue of isoniazid proliferative block in Nras(G12D)/MLL-AF9 leukemic cells; type: cell-based, mouse; conditions: exogenous addition of metabolite with isoniazid, day 4 (FIG. 4D-4F)
Text: The average and SEM of fold of cell proliferation are shown. “*” represents p<0.05 of one-way ANOVA test, “**” represents p<0.01 of one-way ANOVA test, “***” represents p<0.001 of one-way ANOVA test. […] The average and SEM of fold of cell proliferation are shown. “*” represents p<0.05 of one-way ANOVA test, “**” represents p<0.01 of one-way ANOVA test, “***” represents p<0.001 of one-way ANOVA test. […] The average and SEM of fold of cell proliferation are shown. “*” represents p<0.05 of one-way ANOVA test, “**” represents p<0.01 of one-way ANOVA test, “***” represents p<0.001 of one-way ANOVA test.

[6] = system: Nras(G12D)/MLL-AF9 leukemic cells; test: Viability of Nras(G12D)/MLL-AF9 leukemic cells cultured with AOA or myriocin; type: cell-based, mouse; conditions: day 3 (FIG. 33A, 34A)
[7] = system: human HL60 (Human promyelocytic leukemia) cells; test: Human HL60 cells cultured with myriocin; type: cell-based; conditions: day 4 of culture (FIG. 33B)
[8] = system: human leukemic cells; test: Viability of human leukemic cell lines cultured with AOA; type: cell-based; conditions: human Molm13, Thp1, ml2, Nomo1, Semk2, Kasumi leukemic cells, day 3 (FIG. 34B-34G)
[9] = system: PLP; test: Intracellular PLP levels by HPLC-MS in Nras(G12D)/MLL-AF9 leukemic cells cultured with isoniazid; type: cell-based, mouse; conditions: day 5 of culture, HPLC-MS (FIG. 2E)
Procedure: The abundance of PLP was measured by high-performance liquid chromatography-mass spectrometry (HPLC-MS) and normalized to the level [^3D]-labeled PLP (internal control). The average and STDEV are shown. Western blot analysis was performed to measure the expression levels of PDXK protein.
as §1
In each case, 2 million cells were collected by centrifugation at 440×g, media was aspirated and 1004 of ice-cold 10% trichloroacetic acid with or without 100 ng/mL d3-pyridoxal (d3-PL), d3-pyridoxine (d3-PN), d3-pyridoxamine (d3-PM), d3-pyridoxal phosphate (d3-PLP) (IsoSciences LLC, Ambler Pa.) was added for metabolite extraction. For experiments involving isoniazid treatment, cells were washed once with PBS to remove residual drug and minimize post-lysis reactions between isoniazid and PLP, which was confirmed by monitoring the d3-PLP internal standard. […]

[10] = system: mouse leukemic cells; test: Proliferation of mouse leukemic cell lines cultured with compound; type: cell-based; conditions: mouse leukemic cell lines with different genetic drivers, day 6 (FIG. 1I)
Procedure: as §2, with “Pyridoxin hydrochloride (Sigma, St Louis Mo.) was added back to VB6(−) medium to make the VB6 (+) medium used for leukemia and MEF culture. Control or gene targeting sgRNAs or shRNAs were delivered by lentivirus. Spin infections were performed at 37° C. and 1500 RPM for 60 minutes. After spin infection, viral supernatants were substituted with leukemic cell culture medium. For compound treatment, isoniazid was added in culture medium at indicated concentrations.” left out
as §3, with “Spin infections were performed at 37 degree and 1500 RPM for 60 minutes. After spin infection, viral supernatants were substituted with leukemic cell culture medium.” left out

COCc1c(CO)cnc(C)c1O [gingkotoxin]
PDXK inhibition [1]: can inhibit PDXK | intracellular levels of PLP [1]: reduced intracellular levels of PLP | intracellular levels of PLP ([1]; listed as ginkgotoxin): reduce intracellular levels of PLP | growth of human AML cells in vitro [2]: suppressed tumor growth | growth of human AML cells in vitro ([2]; listed as ginkgotoxin): can suppress the growth | proliferation of bone marrow lineage negative HSPCs ([3]; bone marrow lineage negative HSPCs, day 6 (FIG. 26A-26B)): little effect | animal survival [4]: improved survival | leukemia disease progression (luciferase signal) [4]: slowed down disease progression

NCCCCN [putrescine]
rescue of proliferative block produced by isoniazid [5]: partially rescued

O=c1ccn([C@@H]2O[C@H](CO)[C@@H](O)[C@H]2O)c(=O)[nH]1 [uridine]
rescue of proliferative block produced by isoniazid [5]: partially rescued

CCCCCCC(=O)CCCCCC/C=C/C[C@@H](O)[C@H](O)[C@@](N)(CO)C(=O)O [myriocin]
viability of leukemic cells in vitro [6]: reduced the viability | sensitivity of HL60 cells to treatment [7]: less sensitive

NOCC(=O)O [AOA, aminooxyacetic acid]
animal survival [4]: extended survival | leukemia disease progression (luciferase signal) [4]: significantly delayed leukemia disease maintenance | viability of leukemic cells in vitro [6]: reduced the viability | viability of leukemic cells in vitro [8]: reduced the viability

CC[C@H](CO)Nc1nc(N(C)Cc2ccccc2)c2ncn(C(C)C)c2n1 [aftin-4]
PDXK inhibition [1]: can nhibit PDXK | intracellular levels of PLP [1]: reduced intracellular levels of PLP | growth of human AML cells in vitro [2]: can suppress the growth; also recorded: inhibited the growth

NC(=O)C[C@H](N)C(=O)O [asparagine]
rescue of proliferative block produced by isoniazid [5]: partially rescued

NNC(=O)c1ccncc1 [isoniazid]
intracellular PLP levels [9]: reduced intracellular PLP levels | proliferation of mouse leukemic cells [10]: blocked proliferation | proliferation of human leukemic cells ([2]; human leukemic cell lines, day 6 of culture (FIG. 7G, 25A-25C)): blocked proliferation | proliferation of bone marrow HSPCs [3]: only a subtle reduction | proliferation of bone marrow lineage negative HSPCs [3]: little effect | animal survival [4]: produced a survival advantage | leukemia disease progression (luciferase signal) [4]: delayed disease progression | reduction of PLP in plasma and bone marrow cells ([4]; isoniazid 90 mg/kg intraperitoneally daily, day 12 post transplant, HPLC-MS (FIG. 13B)): ~25%
